Laboratory results taken from patent US20240269139A1, “COMPOUNDS FOR TARGETED PROTEIN DEGRADATION OF KINASES” (DANA-FARBER CANCER INSTITUTE, INC., priority 2020, published 2024).
Read-outs that look alike come from different tables or passages of the source.

Legend:
Format in all cases: cell-based
[1] = molecular target: protein kinases (human kinome) (Homo sapiens, UniProt P30291)
[2] = molecular target: protein kinases (human kinome) (Homo sapiens, UniProt P11802)
[3] = molecular target: T1, protein kinases (human kinome) (Homo sapiens, UniProt O75385); conditions: ULK1 O75385
T1 sequence (O75385 1-1050): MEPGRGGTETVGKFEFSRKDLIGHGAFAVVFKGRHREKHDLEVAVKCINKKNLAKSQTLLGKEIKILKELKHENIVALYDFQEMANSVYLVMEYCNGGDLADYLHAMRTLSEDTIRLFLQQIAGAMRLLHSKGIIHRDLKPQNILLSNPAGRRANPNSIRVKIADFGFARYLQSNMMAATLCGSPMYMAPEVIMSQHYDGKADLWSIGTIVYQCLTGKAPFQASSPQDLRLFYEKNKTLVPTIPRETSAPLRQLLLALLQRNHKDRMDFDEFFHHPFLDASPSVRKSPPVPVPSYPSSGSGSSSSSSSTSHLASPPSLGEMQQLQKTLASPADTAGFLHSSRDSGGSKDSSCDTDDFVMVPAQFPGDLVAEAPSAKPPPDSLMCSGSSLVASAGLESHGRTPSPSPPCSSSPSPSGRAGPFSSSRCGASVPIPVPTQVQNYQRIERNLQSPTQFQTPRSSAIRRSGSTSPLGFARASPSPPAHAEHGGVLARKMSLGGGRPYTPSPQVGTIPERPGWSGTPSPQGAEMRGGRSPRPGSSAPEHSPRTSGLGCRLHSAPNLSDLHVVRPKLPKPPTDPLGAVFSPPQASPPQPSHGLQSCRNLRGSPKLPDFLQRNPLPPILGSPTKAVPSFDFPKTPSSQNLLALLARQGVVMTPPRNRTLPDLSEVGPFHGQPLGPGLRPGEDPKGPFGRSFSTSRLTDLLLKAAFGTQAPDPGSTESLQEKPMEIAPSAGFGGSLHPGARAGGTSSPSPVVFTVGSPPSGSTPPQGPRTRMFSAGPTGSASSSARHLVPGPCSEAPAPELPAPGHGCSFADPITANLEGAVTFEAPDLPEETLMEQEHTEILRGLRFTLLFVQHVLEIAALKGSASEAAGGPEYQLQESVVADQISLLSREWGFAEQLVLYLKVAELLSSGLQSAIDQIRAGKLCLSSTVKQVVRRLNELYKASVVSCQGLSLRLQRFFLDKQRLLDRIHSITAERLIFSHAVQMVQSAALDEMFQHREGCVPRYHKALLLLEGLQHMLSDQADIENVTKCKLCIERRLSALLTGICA

[4] = molecular target: T2, protein kinases (human kinome) (Homo sapiens, UniProt O14965)
T2 sequence (O14965 1-403): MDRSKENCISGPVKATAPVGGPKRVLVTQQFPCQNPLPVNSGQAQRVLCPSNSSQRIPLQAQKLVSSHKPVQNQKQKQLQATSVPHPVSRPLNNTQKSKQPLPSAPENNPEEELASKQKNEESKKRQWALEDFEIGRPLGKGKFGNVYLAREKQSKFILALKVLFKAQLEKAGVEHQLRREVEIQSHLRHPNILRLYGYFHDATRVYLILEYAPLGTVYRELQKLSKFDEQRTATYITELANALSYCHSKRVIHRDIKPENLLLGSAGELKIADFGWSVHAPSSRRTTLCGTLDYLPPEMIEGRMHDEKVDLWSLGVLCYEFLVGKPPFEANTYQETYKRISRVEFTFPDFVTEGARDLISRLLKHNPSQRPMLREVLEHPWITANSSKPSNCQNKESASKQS

[5] = molecular target: protein kinases (human kinome) (Homo sapiens, UniProt Q2M2I8)
[6] = tested on: protein kinases (human kinome); conditions: for logFC of SRC: Accession P12931-2; for logFC LCK: accession P06239-3; for logFC LCK / logFC LCK (P06239-3): direction of change down
[7] = molecular target: protein kinases (human kinome) (Homo sapiens, UniProt P16591); conditions: for logFC of FER (P16591-1): down; for logFC of FER: FER P16591-1
[8] = AURKB Q96GD4-5, experiment wp131
[9] = AURKB Q96GD4-5, experiment wp137

protein kinases (human kinome) (Homo sapiens, UniProt P30291), sequence (P30291 whole entry): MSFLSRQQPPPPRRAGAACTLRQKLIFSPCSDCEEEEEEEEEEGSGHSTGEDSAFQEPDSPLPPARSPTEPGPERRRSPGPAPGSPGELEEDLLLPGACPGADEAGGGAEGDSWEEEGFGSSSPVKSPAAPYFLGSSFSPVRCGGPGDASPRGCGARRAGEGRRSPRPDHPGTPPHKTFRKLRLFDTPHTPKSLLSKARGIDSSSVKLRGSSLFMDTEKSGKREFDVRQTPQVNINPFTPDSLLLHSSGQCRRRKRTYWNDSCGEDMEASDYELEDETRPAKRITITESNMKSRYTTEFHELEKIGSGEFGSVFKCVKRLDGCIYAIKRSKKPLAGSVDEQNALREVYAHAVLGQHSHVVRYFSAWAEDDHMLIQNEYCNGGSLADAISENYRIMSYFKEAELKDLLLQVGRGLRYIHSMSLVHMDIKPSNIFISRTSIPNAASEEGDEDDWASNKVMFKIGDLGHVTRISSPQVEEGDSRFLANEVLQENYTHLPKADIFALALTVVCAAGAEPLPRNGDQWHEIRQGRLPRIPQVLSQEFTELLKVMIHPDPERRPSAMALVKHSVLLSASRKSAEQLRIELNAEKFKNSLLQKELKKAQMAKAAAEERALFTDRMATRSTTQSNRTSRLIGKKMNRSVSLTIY
protein kinases (human kinome) (Homo sapiens, UniProt P11802), sequence (P11802 whole entry): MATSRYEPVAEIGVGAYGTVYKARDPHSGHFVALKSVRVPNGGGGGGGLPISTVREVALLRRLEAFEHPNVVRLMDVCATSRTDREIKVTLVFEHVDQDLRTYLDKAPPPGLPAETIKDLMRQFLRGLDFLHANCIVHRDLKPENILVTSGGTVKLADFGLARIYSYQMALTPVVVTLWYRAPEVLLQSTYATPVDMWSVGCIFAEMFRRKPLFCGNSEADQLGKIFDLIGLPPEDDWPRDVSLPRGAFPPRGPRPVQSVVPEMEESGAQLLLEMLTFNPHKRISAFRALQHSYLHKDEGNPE
protein kinases (human kinome) (Homo sapiens, UniProt P16591), sequence (P16591 whole entry): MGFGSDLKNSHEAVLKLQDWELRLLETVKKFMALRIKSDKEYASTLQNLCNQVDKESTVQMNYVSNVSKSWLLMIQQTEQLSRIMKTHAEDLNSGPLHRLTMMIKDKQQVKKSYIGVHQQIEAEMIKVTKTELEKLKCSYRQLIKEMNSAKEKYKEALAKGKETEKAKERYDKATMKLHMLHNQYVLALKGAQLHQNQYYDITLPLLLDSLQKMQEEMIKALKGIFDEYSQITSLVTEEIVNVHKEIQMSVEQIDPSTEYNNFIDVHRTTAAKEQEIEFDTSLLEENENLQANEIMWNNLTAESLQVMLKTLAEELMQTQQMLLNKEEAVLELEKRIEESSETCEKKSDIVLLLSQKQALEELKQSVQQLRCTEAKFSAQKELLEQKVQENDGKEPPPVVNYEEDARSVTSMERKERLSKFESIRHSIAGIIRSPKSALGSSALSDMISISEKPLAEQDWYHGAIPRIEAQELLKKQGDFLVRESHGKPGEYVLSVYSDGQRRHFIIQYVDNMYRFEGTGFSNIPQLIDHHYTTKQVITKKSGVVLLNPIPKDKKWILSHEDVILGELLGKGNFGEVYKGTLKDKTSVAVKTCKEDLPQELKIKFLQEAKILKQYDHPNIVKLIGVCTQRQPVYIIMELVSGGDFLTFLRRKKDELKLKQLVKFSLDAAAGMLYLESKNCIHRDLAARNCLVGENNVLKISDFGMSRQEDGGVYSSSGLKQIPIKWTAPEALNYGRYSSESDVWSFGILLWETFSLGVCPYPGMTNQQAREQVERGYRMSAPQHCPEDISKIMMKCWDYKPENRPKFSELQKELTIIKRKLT
protein kinases (human kinome) (Homo sapiens, UniProt Q2M2I8), sequence (Q2M2I8 whole entry): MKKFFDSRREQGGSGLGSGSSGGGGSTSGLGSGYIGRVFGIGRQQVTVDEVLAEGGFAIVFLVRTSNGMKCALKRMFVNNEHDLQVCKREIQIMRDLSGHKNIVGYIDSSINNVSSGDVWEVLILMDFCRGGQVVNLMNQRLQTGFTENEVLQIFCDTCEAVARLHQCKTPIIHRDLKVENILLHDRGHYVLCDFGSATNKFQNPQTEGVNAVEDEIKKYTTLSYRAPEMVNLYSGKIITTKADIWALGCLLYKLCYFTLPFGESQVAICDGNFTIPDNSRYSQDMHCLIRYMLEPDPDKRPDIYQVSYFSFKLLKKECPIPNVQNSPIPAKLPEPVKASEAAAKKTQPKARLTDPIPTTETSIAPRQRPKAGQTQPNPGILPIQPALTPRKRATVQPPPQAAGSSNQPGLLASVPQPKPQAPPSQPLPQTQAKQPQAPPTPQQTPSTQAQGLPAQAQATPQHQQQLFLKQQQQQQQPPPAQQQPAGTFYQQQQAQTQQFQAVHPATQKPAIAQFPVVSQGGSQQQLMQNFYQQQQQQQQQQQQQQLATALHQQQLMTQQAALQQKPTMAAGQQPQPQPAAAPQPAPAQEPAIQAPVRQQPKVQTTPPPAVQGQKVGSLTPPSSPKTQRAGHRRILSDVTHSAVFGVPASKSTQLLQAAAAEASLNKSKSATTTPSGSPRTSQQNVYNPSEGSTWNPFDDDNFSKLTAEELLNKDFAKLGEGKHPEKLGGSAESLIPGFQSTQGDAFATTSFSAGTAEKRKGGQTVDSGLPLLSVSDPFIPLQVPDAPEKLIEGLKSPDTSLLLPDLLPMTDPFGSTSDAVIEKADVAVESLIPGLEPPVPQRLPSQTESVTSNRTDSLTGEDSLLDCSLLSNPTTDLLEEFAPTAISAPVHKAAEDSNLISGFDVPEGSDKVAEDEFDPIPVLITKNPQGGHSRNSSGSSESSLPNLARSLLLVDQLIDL

CC(C)S(=O)(=O)c1ccccc1Nc1nc(Nc2ccc(N3CCN(CCOCCOCCNC(=O)CNc4cccc5c4C(=O)N(C4CCC(=O)NC4=O)C5=O)CC3)cc2)ncc1Cl (centres unmarked) [TL12.186]
logFC of WEE1 ([1]; WEE1 P30291-1, experiment wp137): −2.511 | logFC WEE1 (P30291-1) ([1]; experiment wp016): −1.514 | logFC WEE1 (P30291-1) ([1]; experiment wp131): −2.574 | logFC WEE1 (P30291-1) ([1]; experiment wp137): −2.511 | logFC CDK4 (P11802) ([2]; experiment wp016): −0.9166 | logFC CDK4 (P11802) ([2]; experiment wp131): −1.186 | logFC CDK4 (P11802) ([2]; experiment wp137): −1.173 | logFC ULK1 ([3]; experiment wp131): −3.01 | logFC ULK1 ([3]; experiment wp137): −2.237 | logFC AURKA (O14965) ([4]; experiment wp016): −1.758 | logFC AURKA (O14965) ([4]; experiment wp131): −3.193 | logFC AURKA (O14965) ([4]; experiment wp137): −2.642 | logFC AAK1 ([5]; AAK1 (Q2M218-1), experiment wp016, down): −1.338 | logFC AAK1 ([5]; AAK1 (Q2M218-1), experiment wp131, down): −1.52 | logFC AAK1 ([5]; AAK1 (Q2M218-1), experiment wp137, down): −1.31 | logFC AAK1 ([5]; AAK1, accession Q2M218-1, experiment wp016, direction of change down): −1.338 | logFC AAK1 ([5]; AAK1, accession Q2M218-1, experiment wp131, direction of change down): −1.52 | logFC AAK1 ([5]; AAK1, accession Q2M218-1, experiment wp137, direction of change down): −1.31 | logFC [6, 8]: −0.9938 | logFC AURKB [6, 8]: −0.9938 | logFC [6, 9]: −0.9711 | logFC AURKB [6, 9]: −0.9711 | logFC BUB1B ([6]; Accession O60566-3, experiment wp131, direction down): −0.541 | logFC BUB1B ([6]; Accession O60566-3, experiment wp137, direction down): −0.5516 | logFC of SRC ([6]; experiment wp016): −0.3573 | logFC of SRC ([6]; experiment wp131): −0.7777 | logFC of SRC ([6]; experiment wp137): −0.5738 | logFC CSNK1D ([6]; Accession P48730-2, experiment wp137, direction down): −0.4721 | logFC of CDK17 ([6]; Accession Q00537-2, experiment wp137): −0.7026 | logFC BUB1B ([6]; BUB1B (O60566-3), experiment wp131): −0.541 | logFC BUB1B ([6]; BUB1B (O60566-3), experiment wp137): −0.5516 | logFC CSNK1D ([6]; CSNK1D P48730-2, experiment wp137): −0.4721 | logFC PRKAA1 (Q13131-2) ([6]; Experiment wp016, direction down): −0.434 | logFC PRKAA1 (Q13131-2) ([6]; Experiment wp131, direction down): −0.5988 | logFC PRKAA1 (Q13131-2) ([6]; Experiment wp137, direction down): −0.641 | logFC LCK ([6]; experiment wp016): −0.7129 | logFC LCK ([6]; experiment wp131): −1.455 | logFC LCK ([6]; experiment wp137): −1.373 | logFC ([6]; MARK2 Q7KZI7-14, experiment wp131): −0.4868 | logFC ([6]; PIP5K1A (Q99755-3), experiment wp131): −0.3436 | logFC ([6]; PIP5K1A (Q99755-3), experiment wp137): −0.4526 | logFC RPS6KA1 ([6]; RPS6KA1 (Q15418-2), experiment wp137): −0.4514 | logFC CDK9 (P50750-2) ([6]; experiment wp016): −0.6414 | logFC PRKAA1 (Q13131-2) ([6]; experiment wp016): −0.434 | logFC LCK (P06239-3) ([6]; experiment wp016): −0.7129 | logFC ABL2 (P42684-5) ([6]; experiment wp131): −0.8023 | logFC CDK9 (P50750-2) ([6]; experiment wp131): −1.451 | logFC PRKAA1 (Q13131-2) ([6]; experiment wp131): −0.5988 | logFC of ABL2 (P42684-5) ([6]; experiment wp131): −0.8023 | logFC of MARK2 (Q7KZI7-14) ([6]; experiment wp131): −0.4868 | logFC LCK (P06239-3) ([6]; experiment wp131): −1.455 | logFC CDK9 (P50750-2) ([6]; experiment wp137): −1.511 | logFC PRKAA1 (Q13131-2) ([6]; experiment wp137): −0.641 | logFC RPS6KA1 (Q15418-2) ([6]; experiment wp137): −0.4514 | logFC of CDK17 (Q00537-2) ([6]; experiment wp137): −0.7026 | logFC LCK (P06239-3) ([6]; experiment wp137): −1.373 | logFC of FER (P16591-1) ([7]; Experiment wp016): −2.727 | logFC of FER (P16591-1) ([7]; Experiment wp131): −2.583 | logFC of FER (P16591-1) ([7]; Experiment wp137): −2.329 | logFC of FER ([7]; experiment wp016): −2.727 | logFC of FER ([7]; experiment wp131): −2.583 | logFC of FER ([7]; experiment wp137): −2.329
